The subject of test [1] is Myomerger^−/− C2C12 myoblasts. The experiment in a line: Myoblast fusion assay (myosin+ cells, nuclei count), Myomerger-deficient myoblasts. In kind it is cell-based. The text has this:
To specifically characterize different steps in fusion, we used 3 distinct assays: (i) hemifusion between cells labeled with membrane probe and content probe with unlabeled cells where hemifusion was detected as the appearance of lipid-labeled mononucleated cells without the content probe (FIG. 1A, FIG. 2A, FIG. 1E)); (ii) opening of a fusion pore in fusion between cells labeled with green cell tracker and cells labeled with orange cell tracker was detected as appearance of double-labeled cells (FIG. 1F); and (iii) fusion completion was detected as formation of multinucleated cells. […] Formation of multinucleated myotubes was quantified as the percentage of cell nuclei present in myotubes normalized to the total number of cell nuclei. Hemifusion and fusion pore opening were quantified as a number of double-labeled mononucleated cells normalized to the total number of cell nuclei in the field. For each condition, ≥8 randomly chosen fields of view were imaged. We also analyzed fusion by assessing the number of nuclei in myosin^+ cells. Here, cells were fixed with 4% paraformaldehyde (PFA)/PBS, permeabilized with 0.02% Triton X-100/PBS, and blocked with 3% BSA/PBS followed by immunostaining with myosin antibodies (MF 20, Developmental Studies Hybridoma Bank, 1:40) for one hour at room temperature. Alexa-Fluor secondary antibody (Invitrogen, 1:250) was incubated for 30 minutes at room temperature. Nuclei were stained with Hoechst (Invitrogen). Samples were imaged with a Nikon Eclipse inverted microscope with AIR confocal running NIS Elements and images were analyzed with Fiji (SCHINDELIN et al. (2012) “Fiji: an open-source platform for biological-image analysis” Nat Methods, Vol. 9, pp. 676-682, which is herein incorporated by reference in its entirety)
For detergent and recombinant protein application, 2.5×10^4 myoblasts per well of an 8-well μ-slide (Ibidi) were differentiated for 72 hours. 0.06% Octyl-β-Glucoside (OG) (Anatrace) in differentiation media was incubated for 30 minutes at 37° C. Cells were washed with PBS and switched back to normal differentiation media for 5 hours. For primary myoblasts, 3×10^4 cells were plated per well of an 8-well μ-slide (Ibidi) coated with fibronectin (Sigma-Aldrich, 5 μg/cm^2) and differentiated for 36 hours. Cells were treated with 0.06% OG in PBS for 30 minutes at 37° C., washed with PBS and switched back to normal differentiation media for 2 hours. For recombinant proteins, cells were treated with various concentrations of rMBP or rMBP-Myomerger^26-84 (0.5 μM, 1.25 μM, 3 μM, 6.25 μM and 12.5 μM), or 6.25 μM of Magainin 2 (AnaSpec), in differentiation media for 20 hours at 37° C.

Test [2] relates to Myomaker^−/− C2C12 myoblasts. The experiment in a line: Myoblast fusion assay (myosin+ cells, nuclei count), Myomaker-deficient myoblasts. In kind it is cell-based. From the text:
(§1) To specifically characterize different steps in fusion, we used 3 distinct assays: (i) hemifusion between cells labeled with membrane probe and content probe with unlabeled cells where hemifusion was detected as the appearance of lipid-labeled mononucleated cells without the content probe (FIG. 1A, FIG. 2A, FIG. 1E)); (ii) opening of a fusion pore in fusion between cells labeled with green cell tracker and cells labeled with orange cell tracker was detected as appearance of double-labeled cells (FIG. 1F); and (iii) fusion completion was detected as formation of multinucleated cells. […] Formation of multinucleated myotubes was quantified as the percentage of cell nuclei present in myotubes normalized to the total number of cell nuclei. Hemifusion and fusion pore opening were quantified as a number of double-labeled mononucleated cells normalized to the total number of cell nuclei in the field. For each condition, ≥8 randomly chosen fields of view were imaged. We also analyzed fusion by assessing the number of nuclei in myosin^+ cells. […] Samples were imaged with a Nikon Eclipse inverted microscope with AIR confocal running NIS Elements and images were analyzed with Fiji (SCHINDELIN et al. (2012) “Fiji: an open-source platform for biological-image analysis” Nat Methods, Vol. 9, pp. 676-682, which is herein incorporated by reference in its entirety) […]

For another test, the system named is C2C12 myoblasts. Kind of test: Myoblast fusion assay, WT myoblasts. In kind it is cell-based.
Excerpt: as §1

Test [3] deals with mouse Red Blood Cells (RBCs). Kind of test: Red blood cell hemolysis (spectrophotometer). In kind it is cell-based. As to conditions: Myomerger ectodomain at 25 μM. The method, then:
Myomerger ectodomain (amino acids 26-84) was added to mouse Red Blood Cells (RBCs) and hemolysis was measured using a spectrophotometer (FIG. 9).

The next test deals with primary myoblasts. The experiment in a line: Myoblast fusion assay, Myomerger-deficient primary myoblasts. In kind it is cell-based, mouse. Conditions: 0.06% OG in PBS 30 minutes.
Excerpt: as §1

The test system of another test is WT C2C12 myoblasts. Kind of test: Synchronized fusion assay (LPC), WT C2C12. In kind it is cell-based. As to conditions: 50 μM CPZ 60 seconds at LPC removal, assayed after 30 minutes. From the text:
(§2) We uncoupled the myoblast fusion stage of myogenic differentiation from the stages that prepare the cells for fusion using a fusion-synchronization approach described previously (GAMAGE et al. (2017) “Insights into the localization and function of myomaker during myoblast fusion” J Biol Chem, Vol. 292, pp. 17272-17289, which is herein incorporated by reference in its entirety; LEIKINA et al. (2013) “Extracellular annexins and dynamin are important for sequential steps in myoblast fusion” J Cell Biol, Vol. 200, pp. 109-123, which is herein incorporated by reference in its entirety). In brief, fusion-committed myoblasts were placed into complete medium supplemented with 150 μM lauroyl LPC (#855475P, Avanti Polar Lipids). 16 h later we washed the cells three times with LPC-free complete medium. […]
(§3) We labeled C2C12 cells 48 hours after placement in the differentiation medium, and co-plated differently labeled cells in a 1-to-1 ratio. […] Fusion was scored 30 min after LPC removal and thus […] after placing the cells into differentiation medium. […] We kept the cells in LPC-supplemented differentiation medium for 16 hours, washed out LPC with LPC-free medium and 30 minutes later (˜24 hours after placing the cells into differentiation medium) scored fusion. […]

The test system of another test is Myomaker^−/− C2C12 cells. The experiment in a line: Synchronized fusion assay (LPC), Myomaker^−/− C2C12. In kind it is cell-based. As to conditions: 50 μM CPZ 60 seconds at LPC removal, assayed after 30 minutes.
For test [4], the system named is Myomerger^−/− C2C12 myoblasts. Kind of test: Synchronized fusion assay (LPC), Myomerger^−/− C2C12. In kind it is cell-based. As to conditions: 50 μM CPZ 60 seconds at LPC removal, assayed after 30 minutes.
Excerpt: as §2, §3

For test [5], the system named is Escherichia coli (E. coli). The experiment in a line: Bactericidal assay, colony forming units. In kind it is cell-based. Conditions: 25 μM, 2 hours. The procedure: (§4) Gram-positive bacteria Listeria monocytogenes (Lm) and gram-negative bacteria Escherichia coli (E. coli) were treated with 25 μM recombinant Myomerger ectodomain (labeled as “protein” in FIG. 8) for 2 hours.

Test [6] concerns Listeria monocytogenes (Lm). The experiment in a line: Bactericidal assay, colony forming units. In kind it is cell-based. Conditions: 25 μM, 2 hours. The procedure:
as §4

[7] abbreviates: 6.25 μM Magainin 2, 20 hours on day 3 of differentiation.
Where [8] appears, read: 0.06% OG 30 minutes on day 3 of differentiation, fusion assessed 5 hours after treatment.

“Also recorded” adds a separate entry of the source.

Protocol for Myomaker^−/− C2C12 cells: We labeled C2C12 cells 48 hours after placement in the differentiation medium, and co-plated differently labeled cells in a 1-to-1 ratio. […] Fusion was scored 30 min after LPC removal and thus −68 hours after placing the cells into differentiation medium. […] We kept the cells in LPC-supplemented differentiation medium for 16 hours, washed out LPC with LPC-free medium and 30 minutes later (˜24 hours after placing the cells into differentiation medium) scored fusion.
Formation of multinucleated myotubes was quantified as the percentage of cell nuclei present in myotubes normalized to the total number of cell nuclei. Hemifusion and fusion pore opening were quantified as a number of double-labeled mononucleated cells normalized to the total number of cell nuclei in the field. […]

Consider Magainin 2 [Mag2], for which the fusion result in test [1] (setting [7]) is “partially rescued fusion; also recorded: induced myotube formation”; in test [2] (setting [7]) it was “had no effect”; in the test with C2C12 myoblasts (Mag2 treatment), “did not have an effect”. For the same molecule, the “percentage of myosin+ cells with 3 or ≥4 nuclei” value in test [1] (Mag2 treatment) was “increased the percentage of cells with 3 nuclei but also induced formation of myotubes with ≥4 nuclei”. Further, the hemolysis result in test [3] is on record as “no measurable effect”.
Regarding `CCCCCCCCO[C@@H]1O[C@H](CO)[C@@H](O)[C@H](O)[C@H]1O` [OG, Octyl-β-Glucoside], the fusion result is on record as “obvious fusion events; also recorded: induced fusion” in test [1] (setting [8]), “did not fuse” in test [2] (setting [8]), “did not have an effect” in the test on C2C12 myoblasts (OG treatment) and “compensate for loss of Myomerger” with primary myoblasts. The “percentage of myosin+ cells with 3 or ≥4 nuclei” value in test [1] (OG treatment) is “increased the percentage of cells with 3 nuclei but also induced formation of myotubes with ≥4 nuclei”.
Regarding `CN(C)CCCN1c2ccccc2Sc2ccc(Cl)cc21` [CPZ, chlorpromazine], the “fusion (syncytium formation)” value in the test on WT C2C12 myoblasts was “little effect”; in the test on Myomaker^−/− C2C12 cells, “No fusion was observed”; in test [4] it was “reached fusion levels observed for WT myoblasts”.

B1: Myomerger ectodomain: recombinant Myomerger ectodomain (amino acids 26-84) used in Example Set B (protein)
chain: MPVPLLPMVLRSLLSRLLLPVARLARQHLLPLLRRLARRLSSQDMREALLSCLLFVLSQQQPPDSGEASRVDHSQRKERLGPQK
In the case of B1, the “growth (colony forming units)” value in test [5] and in test [6] was “disrupts the growth” each time. The “effect on Lm compared to E. coli” value in [6] (gram-positive vs gram-negative) was “more of an effect”. In test [3], the hemolysis result is “induced lysis”.

For the origin of these results see patent US12054526B2, “Polypeptides, nucleic acid molecules, compositions, and related methods” (CHILDREN'S HOSPITAL MEDICAL CENTER, priority 2018, dated 2024).
